In ChEMBL document CHEMBL1201862, “PubChem BioAssay data set” (2004):
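These data come from cells grown in 96-well plates and exposed to compound for 48 hours at five concentrations. At the GI50, growth is halved.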 Active and inactive are the calls of the source. Cut-off read from the data, not from the text of the source: active = GI50 up to about 1.1 µM and inactive = higher.

What was measured:
Test in all cases: DTP human tumour cell line panel, 48 h
SF-268 = system: SF-268
DLD-1 = system: DLD-1
BT-549 = system: BT-549
IGROV-1 = system: IGROV-1
HOP-62 = system: HOP-62
Malme-3M = system: Malme-3M
Hs-578T = system: Hs-578T
A498 = system: A498
NCI-H23 = system: NCI-H23
SR = system: SR
SNB-75 = system: SNB-75
SF-539 = system: SF-539
NCI-H522 = system: NCI-H522
UACC-257 = system: UACC-257
UO-31 = system: UO-31
TK-10 = system: TK-10
OVCAR-8 = system: OVCAR-8
SF-295 = system: SF-295
LOX IMVI = system: LOX IMVI
HCT-15 = system: HCT-15

Measured: GI50

O=c1n(CC2CO2)c(=O)n(CC2CO2)c(=O)n1CC1CO1 (configuration not stated) [TEROXIRONE]
inactive: SF-268 14300 nM | DLD-1 62100 nM | BT-549 11500 nM | IGROV-1 39200 nM | HOP-62 20300 nM | Malme-3M 25400 nM | Hs-578T 33800 nM | A498 30300 nM | NCI-H23 16700 nM | SR 1250 nM | SNB-75 25100 nM | SF-539 7760 nM | NCI-H522 13600 nM | UACC-257 32700 nM | UO-31 25700 nM | TK-10 36600 nM | OVCAR-8 33300 nM | SF-295 10000 nM | LOX IMVI 14100 nM

C=Cc1cc(OC)c2c(c1)c(=O)oc1c2cc(OC)c2c(O)ccc(C3OC(C)C(O)C(C)(O)C3O)c21 (configuration not stated)
active: SF-268 23.7 nM | DLD-1 67.1 nM | BT-549 1.83 nM | IGROV-1 40.3 nM | HOP-62 22.5 nM | Malme-3M 76.4 nM | Hs-578T 2.95 nM | A498 44.4 nM | NCI-H23 23.7 nM | SR 0.00307 nM | SNB-75 30.2 nM | SF-539 29.5 nM | UO-31 45.4 nM | TK-10 2.49 nM | OVCAR-8 25 nM | SF-295 31.3 nM | LOX IMVI 22.5 nM
48.9 nM: HCT-15
